Several values for one entry are separate records, joined by “and”; a condition that tells them apart may be missing. Identical values can stand only once. Like-named read-outs stand apart in the source and are kept apart here.

The test system of this test is Tetrabenazine-Induced Ptosis. The test is described as follows: Blockade of Tetrabenazine-Induced Ptosis in Mice (antidepressant activity). The conditions noted are these: female mice; for ED50: Mus musculus. The class given is in vivo, mice (ICR-DUB strain). The protocol:
Thirty minutes later the presence or absence of complete eyelid closure (ptosis) is assessed in each animal. For compounds which produced blockage of ptosis in all animals, and ED50 value is obtained using a minimum of three geometrically spaced dosages with five mice/dose.

The mark [1] stands for this setting: IP, 30 min before tetrabenazine 32 mg/kg IP, test compounds in text, read-out: ED50 (confidence limits).
Where [2] appears, read: ip, read-out: ED50 (95% confidence limits), IP, 30 min before tetrabenazine 32 mg/kg IP, Table 1 reference agents, probit analysis.

In the case of `CN1CC(=C(c2ccccc2)c2ccccc2)C1` [1-methyl-3-diphenylmethyleneazetidine], the ED50 under setting [1] was 1.48 mg/kg. Turning to `CCOc1ccccc1OCC1CNCCO1` (centres unmarked) [viloxazine], the ED50 under setting [2] amounted to 1.5 mg/kg. For `CC(C)N1CC(=C(c2ccccc2)c2ccccc2)C1.O=C(O)C(=O)O` [1-isopropyl-3-diphenylmethyleneazetidine oxalate], under setting [1], the ED50 stood at 2.18 mg/kg.

As for `CN(C)CCCN1c2ccccc2CCc2ccccc21` [imipramine], the “ED50 (95% confidence limits)” value (IP, 30 min before tetrabenazine 32 mg/kg IP, Table 1 reference agents, probit analysis) was 0.4 (0.2-0.9) mg/kg and 0.5 (0.2-1.2) mg/kg. For the same molecule, the ED50 under setting [2] worked out at 0.3 mg/kg.

(Values after patent US4242261A, “Production of methylene-cycloamines” (A. H. Robins Company, Inc., priority 1979, dated 1980).)
